The target in one assay is GPR174 (Homo sapiens, UniProt Q9BXC1). Put plainly: CRE-Luc reporter Gs signaling assay with GPR174. The class given is cell-based. Also noted: host or cells: HEK293 or CHO cell lines (ATCC). Particulars: pCRE-Luc reporter; for EC50: multiple values = separate experiments.
In another assay the test system is human PBMCs. The experiment in a line: Th1 cytokines in supernatants of stimulated human PBMC, GPR174 inhibitor with adenosine pathway inhibitors (Examples 15, 18-22). The class given is cell-based. Particulars: for IFN-γ, ratio relative to vehicle control (Veh column) / IL-2, ratio relative to vehicle control (Veh column) / TNF, ratio relative to vehicle control (Veh column): Cmpd 10 1, ZM 0.1, PBF 0.1, SCH 0.2 μM, ADA 0.75 μg/mL; for IFN-γ, ratio relative to vehicle control (MRS) / IL-2, ratio relative to vehicle control (MRS column) / TNF, ratio relative to vehicle control (MRS column): MRS-1754 1 μM added to the agent(s) of the label, label MRS = MRS alone. The protocol:
Human PBMCs, obtained from a human volunteer donor, were dispensed at density of 1×10^6 cells/well in a 96-well flat-bottom plate and were stimulated in triplicate with 1 μg/mL anti-CD3 antibody (UCHT1) and 0.1 μg/mL anti-CD28 antibody (CD28.2) in the presence of:
Supernatants from these cells were collected at 24 hours post-stimulation and the levels of IFN-γ were determined by ELISA assay. Statistical analysis was carried out using one-way ANOVA with Tukey's post-hoc multiple comparison's correction.
Human PBMCs, obtained from a human volunteer donor (donor 1), were dispensed in X-vivo15 media (Lonza) supplemented with Glutamax, penicillin and streptomycin, at density of 1×10^6 cells/well in a 96-well flat-bottom plate and were stimulated with 1 μg/mL anti-CD3 antibody (UCHT1) and 0.1 μg/mL anti-CD28 antibody (CD28.2) in the presence of:
Supernatants from these cells were collected at 24 hours post-stimulation and the levels of IFN-γ, IL-2 and TNF were determined by ELISA assays.
Human PBMCs, obtained from two individual human volunteer donors (donor 2 and donor 3), were dispensed at density of 1×10^6 cells/well in a 96-well flat-bottom plate and were stimulated with 1 μg/mL anti-CD3 antibody (UCHT1) and 0.1 μg/mL anti-CD28 antibody (CD28.2) in the presence of:
Human PBMCs, obtained from twelve individual human volunteer donors were dispensed at density of 1×10^6 cells/well in a 96-well flat-bottom plate and were stimulated in triplicate with 1 μg/mL anti-CD3 antibody (UCHT1) and 0.1 μg/mL anti-CD28 antibody (CD28.2) in the presence of:
A total of 44 experiments using PBMC from 12 healthy donors were tested (9 donors for GM-CSF), with each donor tested in 1 to 8 separate experiments, depending on the donor (1 to 4 experiments each for GM-CSF). […] Cytokines were detected in supernatants with the Legendplex (Biolegend) or the MSB (MesoScale) platforms. […] One-way ANOVA with Tukey's post-hoc multiple comparisons correction was performed to identify significant differences (FC, mean fold change; ****, p<0.0001, ***, p<0.001; **, p<0.01; *, p<0.05, ns, not significant).
Human PBMC (1×10^6 cells/well in a 96-well flat-bottom plate) obtained from donor 3 and donor 6 were stimulated with 1 μg/mL anti-CD3 antibody (UCHT1) and 0.1 μg/mL anti-CD28 antibody (CD28.2) in the presence of:
Supernatants from these cells were collected at 24 hours post-stimulation and the levels of IFN-γ, IL-2, and TNF were determined with the MSD platform (MesoScale Discovery).
Human PBMC (1×10^6 cells/well in a 96-well flat-bottom plate) obtained from donor 7 were stimulated with 1 μg/mL […] (UCHT1) and 0.1 μg/mL anti-CD28 antibody (CD28.2) in the presence of:
Supernatants from these cells were collected at 24 hours post-stimulation and the levels of IFN-γ, IL-2, TNF and GM-CSF were determined with the MSD platform (MesoScale Discovery).
Supernatants from these cells were collected at 24 hours post-stimulation and the levels of IFN-γ, IL-2 and TNF were determined with the MSD platform (MesoScale Discovery).

Usually EC50 stands for the concentration giving half of the maximal effect.

Values joined by “and” are separate entries in the source; they are usually repeats but may differ in a detail not shown here. Equal entries are not always repeated. Marks after values point to notes of the source that are not given here.

Sequence of GPR174 (Q9BXC1 whole entry): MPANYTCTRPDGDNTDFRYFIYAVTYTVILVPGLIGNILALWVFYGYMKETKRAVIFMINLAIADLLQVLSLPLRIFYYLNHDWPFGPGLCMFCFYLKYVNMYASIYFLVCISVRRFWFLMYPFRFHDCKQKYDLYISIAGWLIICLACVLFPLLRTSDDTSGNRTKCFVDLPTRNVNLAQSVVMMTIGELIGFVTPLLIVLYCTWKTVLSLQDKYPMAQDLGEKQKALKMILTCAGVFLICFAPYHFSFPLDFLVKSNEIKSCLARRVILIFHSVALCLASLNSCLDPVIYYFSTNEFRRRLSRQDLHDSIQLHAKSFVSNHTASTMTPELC

As to `CCC(=O)N1CCN(c2cc(N3CCC(C)CC3)c(F)cc2[N+](=O)[O-])CC1` [compound 8], on GPR174, the “Fold decrease in Gs signaling activity” value was determined as 3.3 fold; the EC50 was 700 nM and 400 nM.
Turning to `CC1CCN(c2cc(N3CCN(C(=O)c4cccs4)CC3)c([N+](=O)[O-])cc2F)CC1` [compound 12], at GPR174, the “Fold decrease in Gs signaling activity” value is 3.9 fold; the EC50 is 400 nM and 700 nM.
As to `Cc1ccc(S(=O)(=O)N2CCN(c3cc(N4CCC(C)CC4)c(F)cc3[N+](=O)[O-])CC2)cc1` [compound 14], on GPR174, the “Fold decrease in Gs signaling activity” value was 3 fold and it took 1100 nM to reach a half-maximal effect (EC50).
For `Cc1ccc(S(=O)(=O)N2CCN(c3cc(N4CCCCC4)c(F)cc3[N+](=O)[O-])CC2)cc1` [compound 15] the same measures were 2.6 fold and 1700 nM.
For `CC(C)C(=O)N1CCN(c2cc(N3CCCCC3C)c(F)cc2[N+](=O)[O-])CC1` (centres unmarked) [compound 16] the same measures were 2.1 fold and 800 nM.
On to `CC1CCCCN1c1cc(N2CCN(C(=O)C(C)(C)C)CC2)c([N+](=O)[O-])cc1F` (centres unmarked) [compound 17], for which, on GPR174, the “Fold decrease in Gs signaling activity” value is recorded as 2.0 fold and it took 3000 nM to reach a half-maximal effect (EC50).
As for `CCOC(=O)N1CCN(c2cc(N3CCCCC3C)c(F)cc2[N+](=O)[O-])CC1` (centres unmarked) [compound 18], on GPR174, the “Fold decrease in Gs signaling activity” value was 1.9 fold and the EC50 stood at 1000 nM.
With `O=C1CCCC2=C1C(c1cccc(O)c1)C1=C(N2)c2ccccc2C1=O` (centres unmarked) [compound 24], on GPR174, the “Fold decrease in Gs signaling activity” value worked out at 2.8 fold and the midpoint of the response, the EC50, lay at 4400 nM.
Turning to `O=C1CCCC2=C1C(c1ccccc1)C1=C(N2)c2ccccc2C1=O` (centres unmarked) [compound 25], at GPR174, the “Fold decrease in Gs signaling activity” value is recorded as 4.2 fold and the EC50 was found to be 4600 nM.
For `COc1cc(C2C3=C(CCCC3=O)NC3=C2C(=O)c2ccccc23)ccc1O` (centres unmarked) [compound 26] the same measures were 1.7 fold and 3600 nM.
For `CCc1ccc(C2C3=C(CCCC3=O)NC3=C2C(=O)c2ccccc23)cc1` (centres unmarked) [compound 27], on GPR174, the “Fold decrease in Gs signaling activity” value was 6.2 fold; the EC50 is 800 nM and 500 nM.
Take `COc1cccc(C2C3=C(CCCC3=O)NC3=C2C(=O)c2ccccc23)c1` (centres unmarked) [compound 28]: on GPR174, the “Fold decrease in Gs signaling activity” value turned out to be 1.9 fold and a half-maximal response (EC50) required 3600 nM.
Take `CC(C)c1ccc(C2C3=C(CCCC3=O)NC3=C2C(=O)c2ccccc23)cc1` (centres unmarked) [compound 29]: on GPR174, the “Fold decrease in Gs signaling activity” value came to 5.3 fold and the EC50 is 1200 nM.
For the molecule `CCOc1ccc(C2C3=C(CCCC3=O)NC3=C2C(=O)c2ccccc23)cc1OCC` (centres unmarked) [compound 30], at GPR174, the “Fold decrease in Gs signaling activity” value turned out to be 2.2 fold and the EC50 turned out to be 3800 nM.
Regarding `O=C1CCCC2=C1C(c1ccc(-c3ccccc3)cc1)C1=C(N2)c2ccccc2C1=O` (centres unmarked) [compound 32], at GPR174, the “Fold decrease in Gs signaling activity” value is 3.9 fold and the response was half-maximal at 2500 nM (EC50).
As to `Cc1nnc(-c2ccc(C3C4=C(CCCC4=O)NC4=C3C(=O)c3ccccc34)cc2)o1` (centres unmarked) [compound 34], at GPR174, the “Fold decrease in Gs signaling activity” value was determined as 8.4 fold and a half-maximal response (EC50) required 2800 nM.
As for `O=C1CCCC2=C1C(c1ccc(F)cc1)C1=C(N2)c2ccccc2C1=O` (centres unmarked) [compound 35], on GPR174, the “Fold decrease in Gs signaling activity” value is 2.8 fold and the EC50 amounted to 4300 nM.
`O=C1CCCC2=C1C(c1cccnc1)C1=C(N2)c2ccccc2C1=O` (centres unmarked) [compound 37]: on GPR174, the “Fold decrease in Gs signaling activity” value is recorded as 2.8 fold and the EC50 was found to be 5400 nM.
With `O=C1CCCC2=C1C(c1ccc([N+](=O)[O-])cc1)C1=C(N2)c2ccccc2C1=O` (centres unmarked) [compound 38], on GPR174, the “Fold decrease in Gs signaling activity” value is 8.6 fold and it took 2700 nM to reach a half-maximal effect (EC50).
For `O=C1CCCC2=C1C(c1ccc(Cl)cc1)C1=C(N2)c2ccccc2C1=O` (centres unmarked) [compound 39] the same measures were 7.8 fold and 3000 nM.
On to `CS(=O)(=O)c1ccc(C2C3=C(CCCC3=O)NC3=C2C(=O)c2ccccc23)cc1` (centres unmarked) [compound 40], for which, on GPR174, the “Fold decrease in Gs signaling activity” value worked out at 8.8 fold and the EC50 is 3300 nM.
For `CCCOc1ccc(C2C3=C(CCCC3=O)NC3=C2C(=O)c2ccccc23)cc1` (centres unmarked) [compound 41] the same measures were 13.7 fold and 1000 nM.
For `O=C1CCCC2=C1C(c1ccc(N3CCCC3=O)cc1)C1=C(N2)c2ccccc2C1=O` (centres unmarked) [compound 43] the same measures were 5.1 fold and 5200 nM.
For `CC(C)(C)Oc1ccc(C2C3=C(CCCC3=O)NC3=C2C(=O)c2ccccc23)cc1` (centres unmarked) [compound 44], at GPR174, the “Fold decrease in Gs signaling activity” value is 4.7 fold and the EC50 came to 1300 nM.
As for `O=C1CCCC2=C1C(c1ccc(OC3CCCC3)cc1)C1=C(N2)c2ccccc2C1=O` (centres unmarked) [compound 45], at GPR174, the “Fold decrease in Gs signaling activity” value was found to be 7.6 fold and the EC50 stood at 1000 nM.
For the molecule `O=C1CCCC2=C1C(c1ccc(OC(F)F)cc1)C1=C(N2)c2ccccc2C1=O` (centres unmarked) [compound 46], at GPR174, the “Fold decrease in Gs signaling activity” value was determined as 8.1 fold and a half-maximal response (EC50) required 1200 nM.
Consider `O=C1CCCC2=C1C(c1ccc(Oc3ccccc3)cc1)C1=C(N2)c2ccccc2C1=O` (centres unmarked) [compound 47], for which, on GPR174, the “Fold decrease in Gs signaling activity” value is given as 7.1 fold and a half-maximal effect (EC50) was put at 1000 nM.
For `O=C1CCCC2=C1C(c1ccc(OC(F)(F)F)cc1)C1=C(N2)c2ccccc2C1=O` (centres unmarked) [compound 48] the same measures were 5 fold and 1200 nM.

B1: ADA: adenosine deaminase, an enzyme that catabolizes adenosine into inosine (protein, UniProt P00813 2-363, looked up)
Adenosine deaminase: AQTPAFDKPKVELHVHLDGSIKPETILYYGRRRGIALPANTAEGLLNVIGMDKPLTLPDFLAKFDYYMPAIAGCREAIKRIAYEFVEMKAKEGVVYVEVRYSPHLLANSKVEPIPWNQAEGDLTPDEVVALVGQGLQEGERDFGVKARSILCCMRHQPNWSPKVVELCKKYQQQTVVAIDLAGDETIPGSSLLPGHVQAYQEAVKSGIHRTVHAGEVGSAEVVKEAVDILKTERLGHGYHTLEDQALYNRLRQENMHFEICPWSSYLTGAWKPDTEHAVIRLKNDQANYSLNTDDPLIFKSTLDTDYQMTKRDMGFTEEEFKRLNINAAKSSFLPEDEKRELLDLLYKAYGMPPSASAGQNL
In the case of B1, in the assay on human PBMCs (donor 3), the “IFN-γ, MRS/Veh: ratio in the presence vs. the absence of MRS-1754” value is reported as 0.7*; the “IL-2, MRS/Veh: ratio in the presence vs. the absence of MRS-1754” value was found to be 0.9; the “TNF, MRS/Veh: ratio in the presence vs. the absence of MRS-1754” value is reported as 0.9; the “IFN-γ, ratio relative to vehicle control (MRS)” value was found to be 1.1 fold. In the assay with human PBMCs (donor 3), the “IL-2, ratio relative to vehicle control (MRS column)” value is given as 1.9* fold and the “TNF, ratio relative to vehicle control (MRS column)” value was 1.9* fold. In the assay with human PBMCs (donor 3, no MRS), the “IFN-γ, ratio relative to vehicle control (Veh column)” value is recorded as 1.7* fold; the “IL-2, ratio relative to vehicle control (Veh column)” value is on record as 2.2* fold; the “TNF, ratio relative to vehicle control (Veh column)” value is listed as 2.2* fold. Moreover, in the assay with human PBMCs (donor 6), the “IFN-γ, MRS/Veh: ratio in the presence vs. the absence of MRS-1754” value turned out to be 1.3; the “IL-2, MRS/Veh: ratio in the presence vs. the absence of MRS-1754” value came to 1.0; the “TNF, MRS/Veh: ratio in the presence vs. the absence of MRS-1754” value is recorded as 1.2*; the “IFN-γ, ratio relative to vehicle control (MRS)” value was 1.5* fold. In the assay on human PBMCs (donor 6), the “IL-2, ratio relative to vehicle control (MRS column)” value was 1.3* fold and the “TNF, ratio relative to vehicle control (MRS column)” value is on record as 1.4* fold. Moreover, in the assay with human PBMCs (donor 6, no MRS), the “IFN-γ, ratio relative to vehicle control (Veh column)” value came to 1.2 fold; the “IL-2, ratio relative to vehicle control (Veh column)” value was 1.3* fold; the “TNF, ratio relative to vehicle control (Veh column)” value is on record as 1.2* fold.
